# Source: patent US20190387748A1, “COMPOSITIONS AND RELATED METHODS FOR AGRICULTURE” (priority 2017, published 2019)
# “Also recorded” adds a separate entry of the source.
# Key:
# [1] = test system: Sitophilus zeamais weevils; assay: Weevil survival monitoring; assay type: in vivo; settings: adult S. zeamais mating pairs; 250 μg/ml or 2.5 mg/ml ciprofloxacin; 18 days
# [2] = test system: Sitophilus zeamais weevils; assay: Emergence of F1 weevils (fecundity); settings: 2.5 mg/ml ciprofloxacin; till day 43
# Escherichia coli DH5α = settings: kernels soaked in 2.5 or 0.25 mg/ml ciprofloxacin; overnight
# Experimental: The kernels were soaked for 1.5 hours as described herein. After soaking, kernels were air dried and assayed to determine whether the antibiotic was able to coat and penetrate the kernel. To test this, a concentrated sample of Escherichia coli DH5α in water was spread onto 5 Luria Broth (LB) plates. […] The plates were incubated overnight at 37 degrees C. and bacterial growth and/or zone(s) of inhibition were assessed the next day.
# A concentrated culture of E. coli was then spread onto LB plates and one of the coated kernels was then placed onto the center of the plate. The plates were incubated overnight, and bacterial growth was assessed the next day.
# The plates were incubated overnight and the next day bacterial growth was assessed.
# [3] = test system: Sitophilus zeamais weevils; assay: Assessment of offspring: dissection of corn kernels (F1 weevil development); assay type: in vivo; settings: after 25 days
# [4] = test system: Acyrthosiphon pisum aphids; assay: Aphid survival monitoring; assay type: in vivo
# Description: For each treatment, 33 aphids were placed onto each leaf. Artificial diet feeding systems were changed every 2-3 days throughout the experiment. Aphids were monitored daily for survival and dead aphids were removed from the deep petri dish housing the artificial feeding system when they were discovered.
# (§1) Each treatment group received approximately the same number of individuals from each of the collection plant. For each treatment, 20 aphids were placed onto each leaf. Aphids were monitored daily for survival and dead aphids were removed when they were discovered. In addition, the developmental stage (1st, 2nd, 3rd, 4th, 5th instar, and 5R, representing a reproducing 5th instar) was determined daily throughout the experiment. Pictures of aphids were taken throughout the experiment to evaluate size differences between treatment groups.
# (Vroma vicia faba from Johnny's Selected Seeds) in a climate-controlled incubator (16 h light/8 h dark photoperiod; 60±5% RH; 25±2° C.). Prior to being used for aphid rearing, fava bean plants were grown in potting soil at 24° C. with 16 h of light and 8 h of darkness. To limit maternal effects or health differences between plants, 5-10 adults from different plants were distributed among 10 two-week-old plants, and allowed to multiply to high density for 5-7 days. For experiments, first and second instar aphids were collected from healthy plants and divided into 2 different treatment groups: 1) negative control (leaf injected with water plus blue food coloring) and 2) leaf injected with 50 μg/ml rifampicin in water plus blue food coloring. Each treatment group received approximately the same number of individuals from each of the collection plants. For treatment, rifampicin stock solution (25 mg/ml in 100% methanol) was diluted to 50 μg/ml in water plus blue food coloring. The solution was then placed into a 1.5 ml Eppendorf tube with a fava bean stem perfused with the solutions and the opening of the tube was closed using parafilm. This feeding system was then placed into a deep petri dish (Fisher Scientific, Cat# FB0875711) and aphids were applied to the leaves of the plant. For each treatment, 74-81 aphids were placed onto each leaf. The feeding systems were changed every 2-3 days throughout the experiment. Aphids were monitored daily for survival and dead aphids were removed from the deep petri dish when they were discovered. In addition, the developmental stage (1st, 2nd, 3rd, 4th, 5th and 5R (5th that has reproduced) instar) was determined daily throughout the experiment.
# For each treatment, 49-50 aphids were placed onto each leaf. The feeding systems were changed every 2-3 days throughout the experiment. Aphids were monitored daily for survival and dead aphids were removed from the deep petri dish when they were discovered.
# For each treatment, 76-80 aphids were placed onto each leaf. The feeding systems were changed every 2-3 days throughout the experiment. Aphids were monitored daily for survival and dead aphids were removed from the deep petri dish when they were discovered.
# For each treatment, 50-51 aphids were placed onto each leaf. The feeding systems were changed every 2-3 days throughout the experiment. Aphids were monitored daily for survival and dead aphids were removed from the deep petri dish when they were discovered.
# For each treatment, 56-59 aphids were placed onto each leaf. The feeding systems were changed every 2-3 days throughout the experiment. Aphids were monitored daily for survival and dead aphids were removed from the deep petri dish when they were discovered.
# For each treatment, 57-59 aphids were placed onto each leaf. The feeding systems were changed every 2-3 days throughout the experiment. Aphids were monitored daily for survival and dead aphids were removed from the deep petri dish when they were discovered.
# For each treatment, 15-87 aphids were placed onto each leaf. Artificial diet feeding systems were changed every 2-3 days throughout the experiment.
# Buchnera = assay: qPCR of Buchnera/aphid DNA copy numbers (symbiont titer); assay type: in vivo, Buchnera aphidicola
# Experimental: (§2) After 7 days of treatment, DNA was extracted from multiple aphids from each treatment group. Briefly, the aphid body surface was sterilized by dipping the aphid into a 6% bleach solution for approximately 5 seconds. Aphids were then rinsed in sterile water and DNA was extracted from each individual aphid using a DNA extraction kit (Qiagen, DNeasy kit) according to manufacturer's instructions. DNA concentration was measured using a nanodrop nucleic acid quantification, and Buchnera and aphid DNA copy numbers were measured by qPCR.
# After 6 days of treatment, DNA was extracted from multiple aphids from each treatment group and qPCR for quantifying Buchnera levels was done as described in the previous Example.
# as §2, with “8” for “7”
# as §2, with “After 8” for “After 7”, “from the remaining” for “from multiple”, “aphids in” for “aphids from”
# as §2, with “Briefly,” for “After 7 days of treatment, DNA was extracted from multiple aphids from each treatment group. Briefly,”
# as §2, with “Briefly,” for “After 7 days of treatment, DNA was extracted from multiple aphids from each treatment group. Briefly,”
# as §2, with “3” for “7”, “the remaining living” for “multiple”
# as §2, with “After 5” for “After 7”, “from the remaining” for “from multiple”, “aphids in” for “aphids from”
# At 5 days post-treatment, DNA was extracted from several aphids in each treatment group. Briefly, the aphid body surface was sterilized by dipping the aphid into a 6% bleach solution for approximately 5 seconds.
# [5] = test system: Acyrthosiphon pisum aphids; assay: Aphid developmental stage monitoring; assay type: in vivo
# Experimental: (§3) In addition, the developmental stage (1st, 2nd, 3rd, 4th, 5th instar) was determined daily throughout the experiment. Once an aphid reached the 4th instar stage, they were given their own artificial feeding system in a deep petri dish so that fecundity could be monitored once they reached adulthood.
# as §1
# (Vroma vicia faba from Johnny's Selected Seeds) in a climate-controlled incubator (16 h light/8 h dark photoperiod; 60±5% RH; 25±2° C.). Prior to being used for aphid rearing, fava bean plants were grown in potting soil at 24° C. with 16 h of light and 8 h of darkness. To limit maternal effects or health differences between plants, 5-10 adults from different plants were distributed among 10 two-week-old plants, and allowed to multiply to high density for 5-7 days. […] Aphids were monitored daily for survival and dead aphids were removed from the deep petri dish when they were discovered. In addition, the developmental stage (1st, 2nd, 3rd, 4th, 5th and 5R (5th that has reproduced) instar) was determined daily throughout the experiment.
# In addition, the developmental stage (1st, 2nd, 3rd, 4th, 5th, and 5R (5th that has reproduced) instar) was determined daily throughout the experiment.
# In addition, the developmental stage (1st, 2nd, 3rd, 4th, 5th, and 5R (5th instar aphids that are reproducing) instar) was determined daily throughout the experiment.
# In addition, the developmental stage (1st, 2nd, 3rd, 4th, and 5th instar) was determined daily throughout the experiment.
# as §3, with “5th, and 5R (5th that has reproduced)” for “5th”
# For each treatment, 30 aphids were placed onto each leaf in triplicate. […] Aphids were monitored daily for survival and dead aphids were removed from the deep petri dish when they were discovered. In addition, the developmental stage (1st, 2nd, 3rd, 4th, 5th, and 5R (5th instar aphids that are reproducing) instar) was determined daily throughout the experiment. […]
# [6] = synthetic cationic NCR peptides; cited from earlier work
# [7] = test system: gram-negative and gram-positive bacteria as well as fungi; settings: cited from earlier work
molecule,measurement,setting,value
O=C(O)c1cn(C2CC2)c2cc(N3CCNCC3)c(F)cc2c1=O [ciprofloxacin],Weevil survival,[1],all weevils remained alive for the course of the experiment
same,F1 offspring emerged,[2],much less offspring that emerged
same,E. coli growth on plates with entire soaked corn kernels,Escherichia coli DH5α,no bacteria grew
same,Number of offspring found in dissected corn kernels,[3]; 250 ug/ml ciprofloxacin,13
same,Offspring in the larval form,[3]; 250 ug/ml ciprofloxacin,38%
same,Number of offspring found in dissected corn kernels,[3]; 2.5 mg/ml ciprofloxacin,20
same,Offspring in the larval form,[3]; 2.5 mg/ml ciprofloxacin,65%
"Cc1cc2c(C(C)C)c(O)c(O)c(C=O)c2c(O)c1-c1c(C)cc2c(C(C)C)c(O)c(O)c(C=O)c2c1O [gossypol, gossypol acetic acid]",Time by which all aphids succumbed to treatment,[4]; 0.5% gossypol,≤ 4 days
same,Time of treatment after which aphids began dying,[4]; 0.5% gossypol,2 days
same,Fold less Buchnera/aphid DNA copies vs control,"Buchnera; 0.25 and 0.5% of gossypol, through plants, 5 or 13 days",~4 fold
CC(=O)CCC(=O)O [levulinic acid],Aphid mortality,"[4]; 0.03% levulinic acid, 11-day experiment","higher mortality compared to control treated aphids, although the difference did not reach statistical significance"
same,Insect survival,[4]; 0.03 or 0.3% levulinic acid,decrease in insect survival
same,Aphid survival,"[4]; 0.3% levulinic acid, 11-day experiment",survival was significantly less
same,Fold less Buchnera/aphid DNA copies vs control,"Buchnera; 0.03 or 0.3% levulinic acid in water, 7 days of treatment",~6 fold
same,Buchnera/aphid ratio,"Buchnera; 0.03 or 0.3% levulinic acid, seven and eleven days post-treatment",reduced endosymbiotic Buchnera
same,Aphid development,[5]; 0.03 or 0.3% levulinic acid,delayed aphid development
O=C/C=C/c1ccccc1 [trans-cinnemaldehyde],Aphid survival rate,"[4]; 0.05%, 0.5%, and 5% trans-cinnemaldehyde",dose-dependent decrease in survival; also recorded: significantly lower
same,Symbiont titer (Buchnera DNA to aphid DNA),"Buchnera; 0.05%, 0.5%, and 5% trans-cinnemaldehyde, 3 days post-treatment",reduced endosymbiotic Buchnera
same,Fold less Buchnera/aphid DNA copies vs control,"Buchnera; 0.5 and 5% of trans-cinnemaldehyde, 3 days",~870 fold
same,Buchnera/aphid DNA copies,"Buchnera; lowest concentration of trans-cinnemaldehyde (0.5%), 3 days",high ratios of Buchnera/aphid DNA copies
same,Aphid developmental stage,"[5]; LSR-1 1st and 2nd instar, 0.05%, 0.5%, 5% trans-cinnemaldehyde in water, leaf perfusion and through plants, by 3 days",delayed aphid development; also recorded: none of the aphids matured past the second instar stage
NCR335: cationic nodule C-rich peptide (RQMIILRLNTTFRPLNFKMLRFWGQ),pl,[6],11.22
same,Antimicrobial activity,[7],effective against gram-negative and gram-positive bacteria as well as fungi
